Measurements reported in patent US20250177353A1 (priority 2021, published 2025).
Where two headings read alike, the source gives them in different places.

How the values were obtained:
[1] = SAD phase I study: plasma pharmacokinetics of 2,4-dinitrophenol after Compound 1 (Table 3); format: in vivo, human; conditions: for Vd/F: 500 mg, read-out: Vz/F, Median
Description: A double-blind, placebo-controlled, phase I study of the safety and pharmacokinetics of single ascending doses of compound 1 in healthy volunteers was conducted. The volunteers were orally administered Compound 1 in doses ranging from 30 mg once daily (QD) to 1400 mg QD in a total of 67 subjects (50 active/17 placebo) across 8 cohorts.
Screening procedures occurred on Days -28 to -3. For all Cohorts except Cohort 4 (Fed/Fasted), subjects were admitted to the clinical research unit for up to 4 days. […] Following completion of all safety assessments and blood draws for PK analyses, subjects were discharged on Day 3. The Fed/Fasted cohort remained in the unit and were discharged on Day 7.
Double-blind dosing occurred in cohorts 1 through 8. In these cohorts, six subjects received Compound 1 and two received matching placebo. Doses escalated in the following sequence: 30, 100, 200, 500, 1400, 1050 and 600 mg. • Cohort 4 crossed-over to a fed state (50% fat meal) administration after pharmacokinetics and an inpatient washout had occurred for 72 hours after the first dose with a final dose.
Subjects were admitted to the clinical research unit on Day 1. […] Blood draws for assessment of PK parameters occurred per schedule of assessments. IC were taken per schedule of assessments. Subjects were released on Day 3 following completion of all blood draws and safety assessments. The Fed/Fasted cohort remained in the unit and was discharged on Day 7.
Compound 1 or matching placebo was administered orally as a single dose. All subjects except the fed cohort, were dosed in the morning after an 8-hour fast and remained in a semi-reclined position for 1 hour and fasting for 4 hours post-administration. Capsules were swallowed with 240 mL (8 fluid ounces) of room temperature water.
Cohort 4 was a crossover food effect analysis. Subjects enrolled in Cohort 4 were dosed 30 minutes following the beginning of a standardized (consisting of 50% fat) meal (following a 10-hour fast) to evaluate for food effects. The study drug was administered with room temperature 240 mL (8 fluid ounces) of water.

[2] = MAD study: 2,4-dinitrophenol pharmacokinetics (accumulation, steady state); format: in vivo, human; conditions: MAD cohort 1
Description: A double-blind, sponsor-open, placebo-controlled, phase I study of the safety, pharmacokinetics and pharmacodynamics of multiple ascending doses of Compound 1 in high MBI volunteers was conducted. The first cohort of 10 healthy high body mass index (BMI) subjects has completed dosing at 200 mg Compound 1. Two more cohorts are also planned at doses of 400 and 550 mg QD.
With once daily dosing, significant accumulation of 2,4-dinitrophenol is anticipated at steady state.

[3] = human, in vivo, 500 mg
[4] = cited from earlier work
[5] = single dose 30 mg Compound 1, Fasted
[6] = single dose 100 mg Compound 1, Fasted
[7] = single dose 200 mg Compound 1, Fasted
[8] = single dose 500 mg Compound 1, Fasted
[9] = single dose 500 mg Compound 1, Fed
[10] = single dose 600 mg Compound 1, Fasted, Micronized
[11] = single dose 1050 mg Compound 1, Fasted
[12] = single dose 1050 mg Compound 1, Fasted, Micronized
[13] = single dose 1400 mg Compound 1, Fasted, Micronized

O=[N+]([O-])c1ccc(O)c([N+](=O)[O-])c1 [2,4-dinitrophenol]
Vd/F ([1]; human, oral, single dose 500 mg Compound 1, Fasted): 735 L | Vd/F ([1]; human, oral, single dose 500 mg Compound 1, Fed): 269 L | AUC(0-inf) ([1]; human, oral, single dose 500 mg Compound 1, Fed, read-out: AUCinf, Median): 83800 ng·h/mL | half-life ([1]; human, oral, single dose 500 mg Compound 1, Fed, read-out: t1/2, Median (converted)): 31.2 h | AUC0/24 h, Geometric Mean [1, 5]: 1440 ng·h/mL | AUC0/24 h, Mean (SD) [1, 5]: 1500 (448) h*ng/ML | AUC0/24 h, Median [1, 5]: 1500 ng·h/mL | CL/F, Geometric Mean [1, 5]: 7.44 L/h | CL/F, Mean (SD) [1, 5]: 8.04 (3.39) L/h | CL/F, Median [1, 5]: 9.84 L/h | AUC0/24 h, Geometric Mean [1, 6]: 4660 ng·h/mL | AUC0/24 h, Mean (SD) [1, 6]: 4710 (711) h*ng/ML | AUC0/24 h, Median [1, 6]: 4820 ng·h/mL | CL/F, Geometric Mean [1, 6]: 7.61 L/h | CL/F, Mean (SD) [1, 6]: 7.75 (1.70) L/h | CL/F, Median [1, 6]: 7.87 L/h | AUC0/24 h, Geometric Mean [1, 7]: 11100 ng·h/mL | AUC0/24 h, Mean (SD) [1, 7]: 11200 (1970) h*ng/ML | AUC0/24 h, Median [1, 7]: 10900 ng·h/mL | CL/F, Geometric Mean [1, 7]: 6.12 L/h | CL/F, Mean (SD) [1, 7]: 6.35 (1.79) L/h | CL/F, Median [1, 7]: 7.19 L/h | AUC%extrap, Median [1, 8]: 12.2% | AUCinf/D, Median [1, 8]: 62.4 ng·h/mL/mg | CL/F, Geometric Mean [1, 8]: 16.5 L/h | CL/F, Mean (SD) [1, 8]: 17.7 (7.65) L/h | CL/F, Median [1, 8]: 16.4 L/h | AUC%extrap, Median [1, 9]: 6.56% | AUCinf/D, Median [1, 9]: 168 ng·h/mL/mg | CL/F, Median [1, 9]: 5.97 L/h | λz, Median [1, 9]: 0.0222 h⁻¹ | CL/F, Geometric Mean [1, 10]: 2.80 L/h | CL/F, Mean (SD) [1, 10]: 3.20 (1.62) L/h | CL/F, Median [1, 10]: 2.74 L/h | CL/F, Geometric Mean [1, 11]: 15.2 L/h | CL/F, Mean (SD) [1, 11]: 16.8 (7.60) L/h | CL/F, Median [1, 11]: 18.3 L/h | CL/F, Geometric Mean [1, 12]: 2.20 L/h | CL/F, Mean (SD) [1, 12]: 2.33 (0.715) L/h | CL/F, Median [1, 12]: 2.50 L/h | CL/F, Geometric Mean [1, 13]: 3.96 L/h | CL/F, Mean (SD) [1, 13]: 4.12 (1.43) L/h | CL/F, Median [1, 13]: 3.60 L/h | dose accumulation factor ([2]; Compound 1 200 mg QD for 14 days): approximately 3.5 fold | time to steady-state ([2]; Compound 1 200 mg daily dosing): 7 days | AUC increase under fed conditions relative to fasted conditions [3]: > 2.0 fold | Cmax increase under fed conditions relative to fasted conditions [3]: > 1.8 fold | increase in RMR ([4]; 2,4-dinitrophenol once daily 1-3 months (Tainter, Simkins)): 20-40% | weight loss ([4]; 2,4-dinitrophenol once daily 1-3 months): 1.4-2.1 lbs./week | tolerability ([4]; 2,4-dinitrophenol once daily over 1-3 months): well tolerated | 2,4-dinitrophenol concentrations associated with adverse increases in body temperatures ([4]; humans (Zhao 2015)): greater than 28,000 ng/ml
